Measured values from patent US5608081A, “Hydroxymethylpolythiophene derivatives” (Industrial Technology Research Institute, priority 1995, dated 1997).

Assay: Anti-edema activity, conventional toe edema method using carrageenan as pyrogen and indomethacin as control inhibitory agent
Assay type: in vivo
Settings: inhibition rate above 30% considered also antiinflammatory
Experimental: The anti-edema activity was tested according to the conventional toe edema method using carrageenan as pyrogen and indomethacin as control inhibitory agent. See C. A. Winter, E. A. Risley and G. W. Nuss, Biol. Med., 111, 544 (1962); and A. P. Roszkowshi, W. H. Rooks II, A. J. Tomolonis and L. M. Miller, J. Pharmacol. Exp. Ther., 179, 114 (1971), both of which are hereby incorporated by reference.
In general, polythiophene derivatives of this invention have shown significant anti-edema activity.

Row | Compound | Anti-edema effect, inhibition rate (dosage 10 mg/kg) | Anti-edema effect, inhibition rate (dosage 50 mg/kg) | Anti-edema effect, inhibition rate (dosage 100 mg/kg) | Anti-edema effect, inhibition rate (dosage 200 mg/kg)
1 | OCc1ccc(-c2ccc(CO)s2)s1 | 26% | 34% | 37% | 41%
2 | CC(=O)OCc1ccc(-c2ccc(COC(C)=O)s2)s1 | – | 17% | 28% | 28%
3 | OCCC#Cc1ccc(-c2cccs2)s1 | – | 32% | 36% | 38%
